What was measured:
[1] = pH of excipient measured by a glass electrode, 1 g in 100 g of water at room temperature; type: physicochemical; conditions: aqueous solution or suspension
From the text: In general we observed a best stabilization where each of the constituents being incorporated into a composition has a pH less than 9, preferably less than 8; but can have pH above 5. […] We have concluded that the excipients, being in contact with olmesartan medoxomil, being incorporated into a composition should preferably have a pH less that 8 if measured by a glass electrode in an aqueous solution or suspension containing 1 g of said excipient in 100 g of water at room temperature. Thus the pH of excipents uses in examples is as follows; lactose: about 5.2, L-HPC: about 6.7, MCC: about 6.7, stearic acid: about 5.4, Mg stearate: about 9.5, coating suspension (Example 3): about 6.6.

[2] = Stability of bulk olmesartan medoxomil in solution at different pH; type: physicochemical
Description: The main degradation product is olmesartan acid. […] In a solution at pH=7 the amount of formed olmesartan acid increases by 0.5% in 24 hours, while in 1M HCl the amount increases by approximately 6%. The amounts of individual and total impurities are measured in area % and determined by HPLC using the following procedure: a sample solution was prepared by diluting quantity of pulverized tablet equivalent to 25 mg of olmesartan medoxomil in 50 ml volumetric flask to volume with diluent (Eluent A+Eluent B=50%/50%). Column Waters Xbridge C18, 150×4.6 mm, 3.5 μm was used and eluted by Eluent A (0.025 M KH2PO4 adjusted to pH=2.5 with 50% H3PO4) and Eluent B (acetonitrile) with following gradient: A:B=100:0, from 15 to 30 minutes A:B=70:30, after 30 min A.B=0:100. Flow rate was […], Injection volume was 20 μl, column temperature was 30° C., detection wavelength at 225 nm.

| pH of excipient [1] | Hydrolysis at basic conditions ([2]; basic conditions) | pH range in which most stable ([2]; bulk) | Increase of amount of formed olmesartan acid ([2]; in 1M HCl) | Increase of amount of formed olmesartan acid ([2]; solution at pH=7, 24 hours) | Structure (SMILES) |
| --- | --- | --- | --- | --- | --- |
| about 9.5 | – | – | – | – | CCCCCCCCCCCCCCCCCC(=O)[O-].CCCCCCCCCCCCCCCCCC(=O)[O-].[Mg+2] [Mg stearate] |
| about 5.2 | – | – | – | – | OC[C@H]1O[C@@H](O[C@H]2[C@H](O)[C@@H](O)C(O)O[C@@H]2CO)[C@H](O)[C@@H](O)[C@H]1O (stereo partly shown) [lactose] |
| – | almost completely hydrolyzes | 3-5 | approximately 6% | 0.5% | CCCc1nc(C(C)(C)O)c(C(=O)OCc2oc(=O)oc2C)n1Cc1ccc(-c2ccccc2-c2nnn[nH]2)cc1 [olmesartan medoxomil, 4-(1-hydroxy-1-methylethyl)-2 propyl-1-[[2′-(1H-tetrazol-5-yl) [1,1′-biphenyl]-4-yl]methyl]-1H-imidazole-5-carboxylic acid (5-methyl-2-oxo-1,3-dioxol-4-yl)methyl ester] |
| about 5.4 | – | – | – | – | CCCCCCCCCCCCCCCCCC(=O)O [stearic acid] |
